Measured values: patent US12303513B2, “Methods and compositions to treat cancer” (Children's Hospital Medical Center, priority 2016, dated 2025)
Entries after “also recorded” stand apart in the source; their conditions may differ.

What was measured:
[1] = tested on: MSTO-211H mesothelioma cells; experiment: Growth inhibition by iMDK combined with ABT263 (FIG. 5); assay type: cell-based, human; details: 48 hours, ABT263 plus iMDK versus each drug alone
Description: FIG. 5. ABT263 enhanced iMDK-mediated suppression of cell proliferation in MSTO-211H mesothelioma cells. […] Cell lines: The human malignant pulmonary mesothelioma cells MSTO-211H, H2452, H2052, H28 MESO-1 and MESO-4 were grown in RPMI 1640 supplemented with 10% heat-inactivated fetal bovine serum. The human pulmonary adenocarcinoma cells: H441 and the human embryonic kidney cells: HEK293 were grown in high glucose Dulbecco's modified Eagle supplemented with 10% heat-inactivated fetal bovine serum. All cell lines were cultured in 5% CO2 at 37° C.

[2] = tested on: MSTO211H mesothelioma cells; experiment: Cell growth, cell count with Countess II (FIGS. 14, 15); assay type: cell-based, human; details: 48 hours, dose-dependent, vs DMSO control
Description: FIG. 14. iMDK (#3) and its derivatives (A6, D9 and E6) inhibits growth of MSTO211H mesothelioma cells. MSTO211H mesothelioma cells were treated with iMDK (#3) or iMDK derivatives (A6, D9 or E6) at indicated different final concentrations.
FIG. 15. iMDK (#3) and its derivatives (F5, F6 and F7) inhibits growth of MSTO211H mesothelioma cells. MSTO211H mesothelioma cells were treated with iMDK (#3) or iMDK derivatives (F5, F6 or F7) at indicated different final concentrations.
(§1) Cell lines: The human malignant pulmonary mesothelioma cells MSTO-211H, H2452, H2052, H28 MESO-1 and MESO-4 were grown in RPMI 1640 supplemented with 10% heat-inactivated fetal bovine serum. The human pulmonary adenocarcinoma cells: H441 and the human embryonic kidney cells: HEK293 were grown in high glucose Dulbecco's modified Eagle supplemented with 10% heat-inactivated fetal bovine serum. All cell lines were cultured in 5% CO2 at 37° C.

[3] = tested on: midkine protein; experiment: Inhibition of midkine protein expression (Table, FIGS. 7-12); assay type: cell-based; details: for Activity on protein expression: 1 uM of compound
[4] = tested on: H441 cells; experiment: Cell viability / toxicity in H441 cells (FIGS. 18C, 19); assay type: cell-based, human; details: 10 μM, 3 days after treatment (not shown)
[5] = tested on: MESO4 mesothelioma cells; experiment: Cell growth, cell count with Countess II (FIGS. 16, 17); assay type: cell-based, human; details: MESO4, 48 hours, dose-dependent, vs DMSO control
Description: FIG. 16. iMDK (#3) and its derivatives (A6, D9 and E6) inhibits growth of MESO4 mesothelioma cells. MESO4 mesothelioma cells were treated with iMDK (#3) or iMDK derivatives (A6, D9 or E6) at indicated different final concentrations.
FIG. 17. iMDK (#3) and its derivatives (F5, F6 and F7) inhibits growth of […] mesothelioma cells. MESO4 mesothelioma cells were treated with iMDK (#3) or iMDK derivatives (F5, F6 or F7) at indicated different final concentrations.
as §1

[6] = tested on: 293 cells; experiment: Cell viability, Wright-Giemsa staining (FIG. 18C), 293 cells; assay type: cell-based, human; details: 10 μM, 3 days after treatment
[7] = tested on: endogenous midkine; experiment: Endogenous midkine expression in H441 cells by western blotting (FIG. 18A); assay type: cell-based, human; details: H441 lung adenocarcinoma cells, 10 μM, 24 hours
Description: FIG. 18. […] A. H441 lung adenocarcinoma cells were treated with iMDK and related compounds at a final concentration of 10 μM. Twenty-four hours after treatment, cells were harvest and protein expression was assessed using western blotting assay. […] B. Shown is structures of compounds #2 (also known as F6). #3 (also known as iMDK), #5, #7, and #8. C. […] DMSO was used as control.
as §1

[8] = tested on: normal cells; details: previously reported; cited from earlier work
[9] = tested on: MSTO-211H cells; experiment: Apoptosis by TUNEL staining (FIG. 4); assay type: cell-based, human; details: 48 h treatment, dose dependent
Description: Cells were treated for 48 h at a indicated concentration of iMDK then TUNEL staining was performed to detect apoptosis using the DeadEnd colorimetric TUNEL system (Promega, Madison, WI) according to the manufacturer's protocol. Statistical significance was defined as p<0.01 (*). Cell lines: The human malignant pulmonary mesothelioma cells MSTO-211H, H2452, H2052, H28 MESO-1 and MESO-4 were grown in RPMI 1640 supplemented with 10% heat-inactivated fetal bovine serum. The human pulmonary adenocarcinoma cells: H441 and the human embryonic kidney cells: HEK293 were grown in high glucose Dulbecco's modified Eagle supplemented with 10% heat-inactivated fetal bovine serum. All cell lines were cultured in 5% CO2 at 37° C.

[10] = tested on: H2452 mesothelioma cells; experiment: Cell viability, trypan blue exclusion assay (FIG. 2), H2452; assay type: cell-based, human; details: H2452, 48 hours of treatment
Description: as §1, with “FIG. 2. iMDK suppressed cell viability of MDK expressing malignant pulmonary mesothelioma cells. […] Cell viability was assessed by trypan blue exclusion assay. Statistical significance was defined as p<0.01 (*). Cell” for “Cell”

[11] = tested on: PI3 kinase/Akt pathway; details: previously reported; cited from earlier work
[12] = tested on: MDK expressing non-small cell lung cancer cells; details: previously reported; cited from earlier work
[13] = tested on: H2052 mesothelioma cells; experiment: Cell viability, trypan blue exclusion assay (FIG. 2), H2052; assay type: cell-based, human; details: H2052, 48 hours of treatment
Description: as §1, with “FIG. 2. iMDK suppressed cell viability of MDK expressing malignant pulmonary mesothelioma cells. […] Cell viability was assessed by trypan blue exclusion assay. Statistical significance was defined as p<0.01 (*). Cell” for “Cell”

[14] = tested on: MSTO-211H mesothelioma cells; experiment: Cell viability, trypan blue exclusion assay (FIG. 2), MSTO-211H; assay type: cell-based, human; details: 48 hours of treatment
Description: as §1, with “FIG. 2. iMDK suppressed cell viability of MDK expressing malignant pulmonary mesothelioma cells. […] Cell viability was assessed by trypan blue exclusion assay. Statistical significance was defined as p<0.01 (*). Cell” for “Cell”

[15] = tested on: non-small cell lung cancer expressing MDK; details: previously reported; cited from earlier work
[16] = tested on: MSTO-211H cells; experiment: Colony formation, crystal violet staining (FIG. 3); assay type: cell-based, human; details: fourteen days after treatment
Description: as §1, with “Colony formation of MSTO-211H cells treated with iMDK. Fourteen days after the treatment, cells were fixed and stained with crystal violet. Representative images of experiments performed in triplicate are shown. Cell” for “Cell”

[17] = tested on: H28 mesothelioma cells; experiment: Cell viability, trypan blue exclusion assay (FIG. 2), H28; assay type: cell-based, human; details: H28, 48 hours of treatment
Description: as §1, with “FIG. 2. iMDK suppressed cell viability of MDK expressing malignant pulmonary mesothelioma cells. […] Cell viability was assessed by trypan blue exclusion assay. Statistical significance was defined as p<0.01 (*). Cell” for “Cell”

[18] = tested on: tumors derived from MSTO-211H cells; experiment: Malignant pleural mesothelioma xenograft mouse model (FIG. 6); assay type: in vivo; details: i.p., compared to control (DMSO)
From the text: Eight mice were used in each group. Tumor growth is expressed as mean tumor volume; bars represent SD. Statistical significance was defined as p<0.05 (#)

CC1(C)CCC(c2ccc(Cl)cc2)=C(CN2CCN(c3ccc(C(=O)NS(=O)(=O)c4ccc(N[C@H](CCN5CCOCC5)CSc5ccccc5)c(S(=O)(=O)C(F)(F)F)c4)cc3)CC2)C1 [ABT-263]
growth inhibition in combination with iMDK [1]: more effective than each drug alone | growth inhibition in combination with iMDK ([1]; listed as ABT263): enhanced growth inhibition

O=c1oc2ccccc2cc1-c1cn2cc(Cc3ccc(Cl)cc3)sc2n1 [Compound 1]
growth of cells (number of cells) [2]: significantly inhibited the growth | Concentration to inhibit midkine protein expression [3]: 1 µM | Activity on protein expression [3]: inhibits protein expression | cell viability [4]: inhibited cell viability | growth of cells (number of cells) [5]: significantly inhibited the growth | cell viability [6]: inhibited cell viability | endogenous midkine expression [7]: suppressed endogenous midkine expression

O=c1oc2ccccc2cc1-c1cn2cc(Cc3ccccc3)sc2n1 [Compound 5]
growth of cells (number of cells) [2]: significantly inhibited the growth | Concentration to inhibit midkine protein expression [3]: 10 µM | Activity on protein expression [3]: inhibits protein expression | growth of cells (number of cells) [5]: significantly inhibited the growth

COc1ccc(Cc2cn3cc(-c4cc5ccccc5oc4=O)nc3s2)cc1 [Compound 6]
growth of cells (number of cells) [2]: significantly inhibited the growth | Concentration to inhibit midkine protein expression [3]: 1 µM | Activity on protein expression [3]: inhibits protein expression | growth of cells (number of cells) [5]: significantly inhibited the growth

O=c1oc2ccccc2cc1-c1cn2cc(Cc3cccc(C(F)(F)F)c3)sc2n1 [Compound 7]
Concentration to inhibit midkine protein expression [3]: 0.1 µM

Cc1ccc(Cc2cn3cc(-c4cc5ccccc5oc4=O)nc3s2)cc1 [Compound 8]
growth of cells (number of cells) [2]: significantly inhibited the growth | Concentration to inhibit midkine protein expression [3]: 1 µM | Activity on protein expression [3]: inhibits protein expression | growth of cells (number of cells) [5]: significantly inhibited the growth

O=c1oc2ccccc2cc1-c1cn2cc(Cc3ccc(C(F)(F)F)cc3)sc2n1 [Compound 9]
growth of cells (number of cells) [2]: significantly inhibited the growth | Concentration to inhibit midkine protein expression [3]: 1 µM | Activity on protein expression [3]: inhibits protein expression | growth of cells (number of cells) [5]: significantly inhibited the growth

COc1ccc(-c2cn3cc(Cc4ccc(F)cc4)sc3n2)cc1 [Compound 10]
growth of cells (number of cells) [2]: significantly inhibited the growth | Concentration to inhibit midkine protein expression [3]: 10 µM | Activity on protein expression [3]: inhibits protein expression | growth of cells (number of cells) [5]: significantly inhibited the growth

O=c1oc2ccccc2cc1-c1cn2cc(Cc3ccc(F)cc3)sc2n1 [iMDK, 3-[2-(4-fluorobenzyl)imidazo[2,1-b][1,3]thiazol-6-yl]-2H-chromen-2-one]
harm to normal cells [8]: without harming | apoptosis (TUNEL positive cells) [9]: induced apoptosis; also recorded: significantly increased | growth of cells (number of cells) [2]: significantly inhibited the growth | growth inhibition (cell viability) [10]: Dose-dependent growth inhibition | PI3 kinase/Akt pathway [11]: inhibits | apoptosis [12]: induces apoptosis | Concentration to inhibit midkine protein expression [3]: 0.1 µM | growth inhibition (cell viability) [13]: Dose-dependent growth inhibition | growth inhibition (cell viability) [14]: Dose-dependent growth inhibition | cell viability [4]: inhibited cell viability | growth of cells (number of cells) [5]: significantly inhibited the growth | cell viability [6]: inhibited cell viability | endogenous midkine expression [7]: suppressed endogenous midkine expression | suppression of non-small cell lung cancer expressing MDK [15]: suppresses | colony formation [16]: suppressed colony formation | growth inhibition (cell viability) [17]: Dose-dependent growth inhibition | Volume of the tumors ([18]; iMDK 5 mg/kg): significantly reduced | Volume of the tumors ([18]; iMDK 9 mg/kg): significantly reduced
